Measurements from patent publication US9340590B2 (priority 2011, dated 2016).
Where two headings read alike, the source gives them in different places. Positions of bridges follow the written chain, without caps; N, C: chain ends. Non-standard residues stand in square brackets, D forms with d. Residues, ends and D or L forms follow the SMILES beside them. 1Nal = N[C@@H](Cc1cccc2ccccc12)C(=O)O

What was measured:
Assay in all cases: cell-based
hNav1.7 = hNav1.7 (Homo sapiens, UniProt Q15858); type: cell-based
Sequence of hNav1.7 (Q15858 whole entry, looked up): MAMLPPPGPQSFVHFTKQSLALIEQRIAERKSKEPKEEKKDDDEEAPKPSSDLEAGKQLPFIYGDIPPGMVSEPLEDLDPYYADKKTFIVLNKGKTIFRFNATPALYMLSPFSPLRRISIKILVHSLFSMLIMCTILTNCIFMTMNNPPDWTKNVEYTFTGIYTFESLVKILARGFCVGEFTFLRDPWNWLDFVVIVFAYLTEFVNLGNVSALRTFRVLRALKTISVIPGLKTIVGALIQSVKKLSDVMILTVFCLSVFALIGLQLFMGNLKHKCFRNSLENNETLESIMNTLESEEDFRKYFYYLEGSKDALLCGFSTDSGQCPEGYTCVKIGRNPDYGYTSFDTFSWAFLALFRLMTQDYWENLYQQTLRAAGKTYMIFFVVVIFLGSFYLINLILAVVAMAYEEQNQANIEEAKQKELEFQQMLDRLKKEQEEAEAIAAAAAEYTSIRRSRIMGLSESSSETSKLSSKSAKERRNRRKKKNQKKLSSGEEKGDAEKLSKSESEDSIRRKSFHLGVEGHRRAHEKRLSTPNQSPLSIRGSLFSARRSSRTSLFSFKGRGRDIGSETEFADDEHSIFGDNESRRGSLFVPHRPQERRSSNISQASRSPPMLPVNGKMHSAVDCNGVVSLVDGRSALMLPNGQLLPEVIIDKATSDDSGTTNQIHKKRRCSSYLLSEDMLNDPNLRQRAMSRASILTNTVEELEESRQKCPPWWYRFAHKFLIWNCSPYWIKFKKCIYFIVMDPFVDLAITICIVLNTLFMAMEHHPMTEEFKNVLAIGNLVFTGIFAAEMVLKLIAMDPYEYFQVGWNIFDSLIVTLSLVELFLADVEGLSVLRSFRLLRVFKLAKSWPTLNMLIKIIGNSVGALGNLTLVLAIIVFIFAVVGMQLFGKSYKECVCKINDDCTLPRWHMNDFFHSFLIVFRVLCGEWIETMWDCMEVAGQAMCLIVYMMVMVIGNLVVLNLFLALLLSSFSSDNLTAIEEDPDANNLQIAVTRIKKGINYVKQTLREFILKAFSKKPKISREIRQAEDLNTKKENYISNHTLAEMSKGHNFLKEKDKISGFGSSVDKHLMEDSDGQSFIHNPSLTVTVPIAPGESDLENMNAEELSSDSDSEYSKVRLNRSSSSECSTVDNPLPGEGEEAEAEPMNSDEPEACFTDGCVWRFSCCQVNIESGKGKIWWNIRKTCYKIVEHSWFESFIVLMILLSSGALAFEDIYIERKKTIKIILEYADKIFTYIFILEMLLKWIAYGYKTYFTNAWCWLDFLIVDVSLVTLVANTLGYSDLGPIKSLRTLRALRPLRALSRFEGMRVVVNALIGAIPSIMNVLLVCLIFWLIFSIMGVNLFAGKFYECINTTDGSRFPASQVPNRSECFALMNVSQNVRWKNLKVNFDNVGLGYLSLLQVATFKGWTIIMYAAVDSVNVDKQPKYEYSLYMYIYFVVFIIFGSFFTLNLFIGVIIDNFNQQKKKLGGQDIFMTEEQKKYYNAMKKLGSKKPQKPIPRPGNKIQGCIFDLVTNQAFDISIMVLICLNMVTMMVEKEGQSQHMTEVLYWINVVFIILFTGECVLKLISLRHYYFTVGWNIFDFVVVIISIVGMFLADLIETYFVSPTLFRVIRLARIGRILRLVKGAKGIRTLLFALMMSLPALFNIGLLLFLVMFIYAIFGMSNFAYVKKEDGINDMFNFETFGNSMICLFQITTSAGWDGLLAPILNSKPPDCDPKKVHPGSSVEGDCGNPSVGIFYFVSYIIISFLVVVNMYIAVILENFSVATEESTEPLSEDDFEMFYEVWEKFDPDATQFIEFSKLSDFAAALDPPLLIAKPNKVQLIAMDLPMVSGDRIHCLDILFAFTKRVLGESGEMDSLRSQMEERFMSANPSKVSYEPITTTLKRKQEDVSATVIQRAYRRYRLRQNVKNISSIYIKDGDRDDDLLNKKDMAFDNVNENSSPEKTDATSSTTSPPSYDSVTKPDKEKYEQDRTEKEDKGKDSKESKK

hNav1.5 = hNav1.5 (Homo sapiens, UniProt Q14524)
Sequence of hNav1.5 (Q14524 whole entry, looked up): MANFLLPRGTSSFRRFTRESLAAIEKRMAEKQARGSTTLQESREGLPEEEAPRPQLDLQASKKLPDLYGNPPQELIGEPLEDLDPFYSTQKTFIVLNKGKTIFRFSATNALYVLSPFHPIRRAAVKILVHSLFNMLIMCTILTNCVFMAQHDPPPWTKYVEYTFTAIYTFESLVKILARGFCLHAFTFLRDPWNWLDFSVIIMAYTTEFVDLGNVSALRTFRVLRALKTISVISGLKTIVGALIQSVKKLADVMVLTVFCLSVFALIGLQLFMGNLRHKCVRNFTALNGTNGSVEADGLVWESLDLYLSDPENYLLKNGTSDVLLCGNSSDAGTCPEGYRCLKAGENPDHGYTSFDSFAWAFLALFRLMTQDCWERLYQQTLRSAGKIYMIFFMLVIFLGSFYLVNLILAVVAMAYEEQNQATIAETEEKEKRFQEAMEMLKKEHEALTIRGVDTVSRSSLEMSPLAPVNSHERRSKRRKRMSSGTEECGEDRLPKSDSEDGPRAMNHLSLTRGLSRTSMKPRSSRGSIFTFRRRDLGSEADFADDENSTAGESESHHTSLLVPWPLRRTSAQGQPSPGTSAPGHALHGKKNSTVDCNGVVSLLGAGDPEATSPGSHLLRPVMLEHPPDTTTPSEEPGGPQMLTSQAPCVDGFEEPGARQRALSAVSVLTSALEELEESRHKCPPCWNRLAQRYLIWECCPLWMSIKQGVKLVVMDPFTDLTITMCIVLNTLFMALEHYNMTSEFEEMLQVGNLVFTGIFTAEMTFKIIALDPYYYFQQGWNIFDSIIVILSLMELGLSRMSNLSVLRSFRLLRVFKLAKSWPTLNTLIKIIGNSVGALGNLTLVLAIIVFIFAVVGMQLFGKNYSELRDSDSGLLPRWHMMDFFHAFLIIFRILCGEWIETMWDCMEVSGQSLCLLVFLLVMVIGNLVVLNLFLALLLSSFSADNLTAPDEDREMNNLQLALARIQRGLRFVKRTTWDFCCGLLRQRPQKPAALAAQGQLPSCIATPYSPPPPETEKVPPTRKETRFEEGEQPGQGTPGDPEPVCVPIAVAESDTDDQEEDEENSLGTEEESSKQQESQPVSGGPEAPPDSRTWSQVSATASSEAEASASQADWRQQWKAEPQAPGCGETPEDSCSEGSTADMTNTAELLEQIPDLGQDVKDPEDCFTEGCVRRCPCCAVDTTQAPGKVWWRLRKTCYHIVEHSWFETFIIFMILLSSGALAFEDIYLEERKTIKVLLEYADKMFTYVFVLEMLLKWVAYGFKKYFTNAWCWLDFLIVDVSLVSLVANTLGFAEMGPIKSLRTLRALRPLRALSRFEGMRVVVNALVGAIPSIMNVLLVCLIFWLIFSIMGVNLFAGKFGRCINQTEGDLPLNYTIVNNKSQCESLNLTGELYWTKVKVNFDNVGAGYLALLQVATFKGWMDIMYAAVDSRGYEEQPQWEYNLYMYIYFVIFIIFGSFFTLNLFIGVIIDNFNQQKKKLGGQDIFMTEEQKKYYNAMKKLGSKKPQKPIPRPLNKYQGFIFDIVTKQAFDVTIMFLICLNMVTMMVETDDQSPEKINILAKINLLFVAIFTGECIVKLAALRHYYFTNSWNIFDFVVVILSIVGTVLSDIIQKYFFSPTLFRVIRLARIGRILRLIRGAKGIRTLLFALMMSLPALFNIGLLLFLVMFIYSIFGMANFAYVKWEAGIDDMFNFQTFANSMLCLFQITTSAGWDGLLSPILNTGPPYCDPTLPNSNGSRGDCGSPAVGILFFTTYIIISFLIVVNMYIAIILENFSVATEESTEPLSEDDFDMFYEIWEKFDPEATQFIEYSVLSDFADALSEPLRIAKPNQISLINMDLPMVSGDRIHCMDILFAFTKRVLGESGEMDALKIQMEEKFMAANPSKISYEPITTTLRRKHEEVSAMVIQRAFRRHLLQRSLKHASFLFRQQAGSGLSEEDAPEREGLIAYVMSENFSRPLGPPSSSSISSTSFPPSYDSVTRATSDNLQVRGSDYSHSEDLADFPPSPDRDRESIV

hNav1.3 = hNav1.3 (Homo sapiens, UniProt Q9NY46); conditions: IonWorks Quattro, read-out: IWQ Use Nav1.3
[1] = IonWorks Quattro, Use, read-out: IWQ Use Nav1.5
[2] = IonWorks Quattro, Use, read-out: IWQ Use Nav1.7

| SMILES | IC50 (hNav1.5; [1]) | IC50 (hNav1.3; Use) | IC50 (hNav1.7; [2]) | other results |
| --- | --- | --- | --- | --- |
| CC[C@H](C)[C@@H]1NC(=O)[C@@H]2CSSC[C@@H]3NC(=O)[C@H](C(C)C)NC(=O)[C@H](Cc4cccc5ccccc45)NC(=O)[C@H](CC(N)=O)NC(=O)[C@@H]4CCCN4C(=O)[C@H](CCCNC(=N)N)NC(=O)[C@H](CSSC[C@H](NC(=O)[C@@H](N)CC(=O)O)C(=O)N[C@@H](CC(C)C)C(=O)NCC(=O)N[C@@H](Cc4ccccc4)C(=O)N[C@@H](CCSC)C(=O)N[C@@H](CCCNC(=N)N)C(=O)N[C@@H](CCCCN)C(=O)N2)NC(=O)[C@H](CSSC[C@@H](C(=O)N[C@@H](CCCCN)C(=O)N[C@@H](Cc2ccc(O)cc2)C(=O)N[C@H](C(=O)N[C@@H](Cc2ccccc2)C(N)=O)C(C)C)NC(=O)[C@H](Cc2c[nH]c4ccccc24)NC(=O)[C@H](CCCCN)NC(=O)[C@H](Cc2c[nH]cn2)NC(=O)[C@H]([C@@H](C)O)NC(=O)[C@H](CCCNC(=N)N)NC(=O)[C@H](CO)NC3=O)NC(=O)[C@H](CCCCN)NC(=O)[C@H](CC(=O)O)NC(=O)[C@H](CC(N)=O)NC(=O)[C@H](CC(=O)O)NC(=O)[C@@H]2CCCN2C1=O [compound 165] (H-DCLGFMRKCIPDNDKCCRPN[1Nal]VCSRTHKWCKYVF-NH2; disulfide 2-17, 9-23, 16-30) | 10.6 µM | 90 nM | – | IC50 (hNav1.7): 80 nM |
| CC[C@H](C)[C@@H]1NC(=O)[C@@H]2CSSC[C@@H]3NC(=O)[C@H](C(C)C)NC(=O)[C@H](CC(C)C)NC(=O)[C@H](CC(N)=O)NC(=O)[C@@H]4CCCN4C(=O)[C@H](CCCNC(=N)N)NC(=O)[C@H](CSSC[C@H](NC(=O)[C@@H](N)CC(=O)O)C(=O)N[C@@H](CC(C)C)C(=O)NCC(=O)N[C@@H](Cc4ccccc4)C(=O)N[C@@H](CCSC)C(=O)N[C@@H](CCCNC(=N)N)C(=O)N[C@@H](CCCCN)C(=O)N2)NC(=O)[C@H](CSSC[C@@H](C(=O)N[C@@H](CCCCN)C(=O)N[C@@H](Cc2ccc(O)cc2)C(=O)N[C@H](C(=O)N[C@@H](Cc2ccccc2)C(N)=O)C(C)C)NC(=O)[C@H](Cc2c[nH]c4ccccc24)NC(=O)[C@H](CCCCN)NC(=O)[C@H](Cc2cccc4ccccc24)NC(=O)[C@H]([C@@H](C)O)NC(=O)[C@H](CCCNC(=N)N)NC(=O)[C@H](CO)NC3=O)NC(=O)[C@H](CCCCN)NC(=O)[C@H](CC(=O)O)NC(=O)[C@H](CC(N)=O)NC(=O)[C@H](CC(=O)O)NC(=O)[C@@H]2CCCN2C1=O [compound 166] (H-DCLGFMRKCIPDNDKCCRPNLVCSRT[1Nal]KWCKYVF-NH2; disulfide 2-17, 9-23, 16-30) | – | – | – | IC50 (hNav1.7; Table 23, IonWorks Quattro, use, […], read-out: IWQ Use Nav1.7): 300 nM; IC50 (hNav1.5; Table 23, IonWorks Quattro, use, […], read-out: IWQ Use Nav1.5): 0.88 µM; IC50 (hNav1.3; Table 23, use, […]): 430 nM |
| CC[C@H](C)[C@@H]1NC(=O)[C@@H]2CSSC[C@@H]3NC(=O)[C@H](C(C)C)NC(=O)[C@H](CC(C)C)NC(=O)[C@H](CC(N)=O)NC(=O)[C@@H]4CCCN4C(=O)[C@H](CCCNC(=N)N)NC(=O)[C@H](CSSC[C@H](NC(=O)[C@@H](N)CC(=O)O)C(=O)N[C@@H](CC(C)C)C(=O)NCC(=O)N[C@@H](Cc4ccccc4)C(=O)N[C@@H](CCSC)C(=O)N[C@@H](CCCNC(=N)N)C(=O)N[C@@H](CCCCN)C(=O)N2)NC(=O)[C@H](CSSC[C@@H](C(=O)N[C@@H](CCCCN)C(=O)N[C@@H](Cc2ccc(O)cc2)C(=O)N[C@@H](Cc2cccc4ccccc24)C(=O)N[C@@H](Cc2ccccc2)C(N)=O)NC(=O)[C@H](Cc2c[nH]c4ccccc24)NC(=O)[C@H](CCCCN)NC(=O)[C@H](Cc2cnc[nH]2)NC(=O)[C@H]([C@@H](C)O)NC(=O)[C@H](CCCNC(=N)N)NC(=O)[C@H](CO)NC3=O)NC(=O)[C@H](CCCCN)NC(=O)[C@H](CC(=O)O)NC(=O)[C@H](CC(N)=O)NC(=O)[C@H](CC(=O)O)NC(=O)[C@@H]2CCCN2C1=O [compound 168] (H-DCLGFMRKCIPDNDKCCRPNLVCSRTHKWCKY[1Nal]F-NH2; disulfide 2-17, 9-23, 16-30) | – | – | – | IC50 (hNav1.7; Table 26, IonWorks Quattro, use, […], read-out: IWQ Use Nav1.7): 60 nM; IC50 (hNav1.5; IWQ Use Nav1.5 (μM)): 15.7 µM; IC50 (hNav1.3; Table 26, use, […]): 20 nM |
| CC[C@H](C)[C@@H]1NC(=O)[C@@H]2CSSC[C@@H]3NC(=O)[C@H](C(C)C)NC(=O)[C@H](CC(C)C)NC(=O)[C@H](CC(N)=O)NC(=O)[C@@H]4CCCN4C(=O)[C@H](CCCNC(=N)N)NC(=O)[C@H](CSSC[C@H](NC(=O)[C@@H](N)CC(=O)O)C(=O)N[C@@H](CC(C)C)C(=O)NCC(=O)N[C@@H](Cc4ccccc4)C(=O)N[C@@H](CCSC)C(=O)N[C@@H](CCCNC(=N)N)C(=O)N[C@@H](CCCCN)C(=O)N2)NC(=O)[C@H](CSSC[C@@H](C(=O)N[C@@H](CCCCN)C(=O)N[C@@H](Cc2ccc(O)cc2)C(=O)N[C@H](C(=O)N[C@@H](Cc2ccccc2)C(N)=O)C(C)C)NC(=O)[C@H](Cc2c[nH]c4ccccc24)NC(=O)[C@H](CCCCN)NC(=O)[C@H](Cc2cnc[nH]2)NC(=O)[C@H]([C@@H](C)O)NC(=O)[C@H](CCCNC(=N)N)NC(=O)[C@H](CO)NC3=O)NC(=O)[C@H](CCCCN)NC(=O)[C@H](CC(=O)O)NC(=O)[C@H](CC(N)=O)NC(=O)[C@H](Cc2c[nH]c3ccccc23)NC(=O)[C@@H]2CCCN2C1=O [compound 172] (H-DCLGFMRKCIPWNDKCCRPNLVCSRTHKWCKYVF-NH2; disulfide 2-17, 9-23, 16-30) | 8.04 µM | 40 nM | 50 nM | – |
| CC[C@H](C)[C@@H]1NC(=O)[C@@H]2CSSC[C@@H]3NC(=O)[C@H](C(C)C)NC(=O)[C@H](CC(C)C)NC(=O)[C@H](CC(N)=O)NC(=O)[C@@H]4CCCN4C(=O)[C@H](CCCNC(=N)N)NC(=O)[C@H](CSSC[C@H](NC(=O)[C@@H](N)CC(=O)O)C(=O)N[C@@H](CC(C)C)C(=O)NCC(=O)N[C@@H](Cc4ccccc4)C(=O)N[C@@H](CCSC)C(=O)N[C@@H](CCCNC(=N)N)C(=O)N[C@@H](CCCCN)C(=O)N2)NC(=O)[C@H](CSSC[C@@H](C(=O)N[C@@H](CCCCN)C(=O)N[C@@H](Cc2ccc(O)cc2)C(=O)N[C@H](C(=O)N[C@@H](Cc2ccccc2)C(N)=O)C(C)C)NC(=O)[C@H](Cc2c[nH]c4ccccc24)NC(=O)[C@H](CCCCN)NC(=O)[C@H](Cc2cnc[nH]2)NC(=O)[C@H]([C@@H](C)O)NC(=O)[C@H](CCCNC(=N)N)NC(=O)[C@H](CO)NC3=O)NC(=O)[C@H](CCCCN)NC(=O)[C@H](CC(=O)O)NC(=O)[C@H](Cc2c[nH]c3ccccc23)NC(=O)[C@H](CC(=O)O)NC(=O)[C@@H]2CCCN2C1=O [compound 173] (H-DCLGFMRKCIPDWDKCCRPNLVCSRTHKWCKYVF-NH2; disulfide 2-17, 9-23, 16-30) | 17.3 µM | 50 nM | 90 nM | – |
| CC[C@H](C)[C@@H]1NC(=O)[C@@H]2CSSC[C@@H]3NC(=O)[C@H](C(C)C)NC(=O)[C@H](CC(C)C)NC(=O)[C@H](CC(N)=O)NC(=O)[C@@H]4CCCN4C(=O)[C@H](Cc4c[nH]c5ccccc45)NC(=O)[C@H](CSSC[C@H](NC(=O)[C@@H](N)CC(=O)O)C(=O)N[C@@H](CC(C)C)C(=O)NCC(=O)N[C@@H](Cc4ccccc4)C(=O)N[C@@H](CCSC)C(=O)N[C@@H](CCCNC(=N)N)C(=O)N[C@@H](CCCCN)C(=O)N2)NC(=O)[C@H](CSSC[C@@H](C(=O)N[C@@H](CCCCN)C(=O)N[C@@H](Cc2ccc(O)cc2)C(=O)N[C@H](C(=O)N[C@@H](Cc2ccccc2)C(N)=O)C(C)C)NC(=O)[C@H](Cc2c[nH]c4ccccc24)NC(=O)[C@H](CCCCN)NC(=O)[C@H](Cc2c[nH]cn2)NC(=O)[C@H]([C@@H](C)O)NC(=O)[C@H](CCCNC(=N)N)NC(=O)[C@H](CO)NC3=O)NC(=O)[C@H](CCCCN)NC(=O)[C@H](CC(=O)O)NC(=O)[C@H](CC(N)=O)NC(=O)[C@H](CC(=O)O)NC(=O)[C@@H]2CCCN2C1=O [compound 174] (H-DCLGFMRKCIPDNDKCCWPNLVCSRTHKWCKYVF-NH2; disulfide 2-17, 9-23, 16-30) | 14.7 µM | 80 nM | 190 nM | – |
| CC[C@H](C)[C@@H]1NC(=O)[C@@H]2CSSC[C@@H]3NC(=O)[C@H](C(C)C)NC(=O)[C@H](CC(C)C)NC(=O)[C@H](Cc4c[nH]c5ccccc45)NC(=O)[C@@H]4CCCN4C(=O)[C@H](CCCNC(=N)N)NC(=O)[C@H](CSSC[C@H](NC(=O)[C@@H](N)CC(=O)O)C(=O)N[C@@H](CC(C)C)C(=O)NCC(=O)N[C@@H](Cc4ccccc4)C(=O)N[C@@H](CCSC)C(=O)N[C@@H](CCCNC(=N)N)C(=O)N[C@@H](CCCCN)C(=O)N2)NC(=O)[C@H](CSSC[C@@H](C(=O)N[C@@H](CCCCN)C(=O)N[C@@H](Cc2ccc(O)cc2)C(=O)N[C@H](C(=O)N[C@@H](Cc2ccccc2)C(N)=O)C(C)C)NC(=O)[C@H](Cc2c[nH]c4ccccc24)NC(=O)[C@H](CCCCN)NC(=O)[C@H](Cc2cnc[nH]2)NC(=O)[C@H]([C@@H](C)O)NC(=O)[C@H](CCCNC(=N)N)NC(=O)[C@H](CO)NC3=O)NC(=O)[C@H](CCCCN)NC(=O)[C@H](CC(=O)O)NC(=O)[C@H](CC(N)=O)NC(=O)[C@H](CC(=O)O)NC(=O)[C@@H]2CCCN2C1=O [compound 175] (H-DCLGFMRKCIPDNDKCCRPWLVCSRTHKWCKYVF-NH2; disulfide 2-17, 9-23, 16-30) | 7.39 µM | 20 nM | 50 nM | – |
